Measured values taken from patent publication US20260262643A1, “HERBICIDAL BENZOXAZINES” (FMC CORPORATION, priority 2022, published 2026).
Read-outs that look alike come from different tables or passages of the source.

How the values were obtained:
soybean = assay: Test A preemergence; format: in vivo, Glycine max; conditions: Glycine max, pre-emergence, 240 h, read-out: Plant response rating, Soybean; for plant injury at 125 g/ha: 125 g ai/ha; for plant injury at 500 g/ha: 500 g ai/ha
How it was run: (§1)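 Loam/sand soil; pre-em directed soil spray at planting, post-em spray at 1–2 leaf (2–10 cm). Compound in non-phytotoxic solvent + surfactant. Greenhouse 10 d; visual injury vs untreated, 0 = no effect, 100 = complete control.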

galium = assay: Test A postemergence; format: in vivo, Galium aparine; conditions: Galium, post-emergence, 240 h, postemergence, 10 days, 0 to 100 scale (0 no effect, 100 complete control)
How it was run: as §1

barnyardgrass = assay: Test B flooded paddy test; format: in vivo, Echinochloa crus-galli; conditions: Echinochloa crus-galli, 312 h, 250 g ai/ha, Flood, 13 days, 0 to 100 scale (0 no effect, 100 complete control); read-out: Plant response rating, Barnyardgrass
How it was run: (§2)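 Plants at the 2-leaf stage were flooded to 3 cm above the soil, and test compounds were applied directly into the paddy water, with that depth held throughout. After 13 days in a greenhouse, injury was rated visually against untreated controls on a 0–100 scale (100 = complete control).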

sedge, umbrella = assay: Test B flooded paddy test; format: in vivo, Cyperus difformis; conditions: Cyperus difformis, 312 h; 250 g ai/ha, Flood, 13 days, 0 to 100 scale (0 no effect, 100 complete control); read-out: Plant response rating, Sedge, Umbrella
How it was run: as §2

goosegrass [1] = assay: Test A postemergence; format: in vivo, Eleusine indica; conditions: Eleusine indica, post-emergence, 240 h, postemergence, 10 days, 0 to 100 scale (0 no effect, 100 complete control); for pest or weed control at 125 g/ha: 125 g ai/ha, read-out: Goosegrass plant response rating; for pest or weed control at 500 g/ha: 500 g ai/ha, visual injury, read-out: Plant response rating, Goosegrass
How it was run: as §1

rice = assay: Test B flooded paddy test; format: in vivo, Oryza sativa; conditions: Oryza sativa, 312 h; 250 g ai/ha, Flood, 13 days, 0 to 100 scale (0 no effect, 100 complete control); read-out: Plant response rating, Rice
How it was run: as §2

goosegrass [2] = assay: Test A preemergence; format: in vivo, Eleusine indica; conditions: Eleusine indica, pre-emergence, 240 h, read-out: Plant response rating, Goosegrass; for pest or weed control at 125 g/ha: 125 g ai/ha; for pest or weed control at 500 g/ha: 500 g ai/ha
How it was run: as §1

kochia = assay: Test A postemergence; format: in vivo, Bassia scoparia; conditions: Bassia scoparia, post-emergence, 240 h, postemergence, 10 days, 0 to 100 scale (0 no effect, 100 complete control); for pest or weed control at 125 g/ha: 125 g ai/ha, read-out: Kochia plant response rating; for pest or weed control at 500 g/ha: 500 g ai/ha, visual injury, read-out: Plant response rating, Kochia
How it was run: as §1

foxtail, giant = assay: Test A postemergence; format: in vivo, Setaria faberi; conditions: Setaria faberi, post-emergence, 240 h, postemergence, 10 days, 0 to 100 scale (0 no effect, 100 complete control); for pest or weed control at 125 g/ha: 125 g ai/ha, read-out: Foxtail, Giant plant response rating; for pest or weed control at 500 g/ha: 500 g ai/ha, visual injury, read-out: Plant response rating, Foxtail, Giant
How it was run: as §1

ragweed = assay: Test A preemergence; format: in vivo, Ambrosia artemisiifolia; conditions: Ambrosia artemisiifolia, pre-emergence, 240 h, read-out: Plant response rating, Ragweed; for pest or weed control at 125 g/ha: 125 g ai/ha; for pest or weed control at 500 g/ha: 500 g ai/ha
How it was run: as §1

ryegrass, Italian = assay: Test A postemergence; format: in vivo, Lolium multiflorum; conditions: Lolium multiflorum, post-emergence, 240 h, postemergence, 10 days, 0 to 100 scale (0 no effect, 100 complete control); for pest or weed control at 125 g/ha: 125 g ai/ha, read-out: Ryegrass, Italian plant response rating; for pest or weed control at 500 g/ha: 500 g ai/ha, visual injury, read-out: Plant response rating, Ryegrass, Italian
How it was run: as §1

pigweed, palmer = assay: Test A postemergence; format: in vivo, Amaranthus palmeri; conditions: Amaranthus palmeri, post-emergence, 240 h, postemergence, 10 days, 0 to 100 scale (0 no effect, 100 complete control); for pest or weed control at 125 g/ha: 125 g ai/ha, read-out: Pigweed, Palmer plant response rating; for pest or weed control at 500 g/ha: 500 g ai/ha, visual injury, read-out: Plant response rating, Pigweed, Palmer
How it was run: as §1

corn = assay: Test A postemergence; format: in vivo, Zea mays; conditions: Zea mays, post-emergence, 240 h, postemergence, 10 days, 0 to 100 scale (0 no effect, 100 complete control); for plant injury at 125 g/ha: 125 g ai/ha, read-out: Corn plant response rating; for Corn plant response rating (crop injury, 0 = no effect, 100 = complete kill) at 500 g/ha: 500 g ai/ha, visual injury
How it was run: as §1

blackgrass = assay: Test A preemergence; format: in vivo, Alopecurus myosuroides; conditions: Alopecurus myosuroides, pre-emergence, 240 h, read-out: Plant response rating, Blackgrass
How it was run: as §1

[3] = visual injury after 10 days, 0 to 100 scale, 0 is no effect, 100 is complete control
[4] = 0 to 100 scale (0 no effect, 100 complete control), 10 days

SMILES | plant injury at 125 g/ha (soybean; [3]) | pest or weed control at 250 g/ha (barnyardgrass) | pest or weed control at 250 g/ha (sedge, umbrella) | pest or weed control at 125 g/ha (goosegrass [1]) | pest or weed control at 500 g/ha (goosegrass [1]) | plant injury at 250 g/ha (rice) | pest or weed control at 125 g/ha (goosegrass [2]; [3]) | pest or weed control at 125 g/ha (kochia) | pest or weed control at 500 g/ha (kochia) | pest or weed control at 125 g/ha (foxtail, giant) | pest or weed control at 500 g/ha (foxtail, giant) | pest or weed control at 125 g/ha (ragweed; [3]) | pest or weed control at 125 g/ha (ryegrass, Italian) | pest or weed control at 500 g/ha (ryegrass, Italian) | pest or weed control at 125 g/ha (pigweed, palmer) | pest or weed control at 500 g/ha (pigweed, palmer) | plant injury at 125 g/ha (corn) | Corn plant response rating (crop injury, 0 = no effect, 100 = complete kill) at 500 g/ha (corn) | also measured
Cc1ccc(-n2ncnc2C)cc1C(=O)N1C[C@H](C)Oc2c(Cl)cccc21 (single isomer, unassigned) [Compound 126] | 0% | 0% | 0% | 0% | 0% | 0% | 20% | 10% | 20% | 0% | 70% | 0% | 0% | 50% | 0% | 30% | 0% | 10% | plant injury at 500 g/ha (soybean; [3]): 50%; pest or weed control at 125 g/ha (galium; 125 g ai/ha, read-out: Galium plant response rating): 50%; pest or weed control at 500 g/ha (galium; 500 g ai/ha, visual injury, read-out: Plant response rating, Galium): 70%; pest or weed control at 500 g/ha (goosegrass [2]; [3]): 90%; pest or weed control at 500 g/ha (ragweed; [3]): 0%
Cc1cccc2c1O[C@@H](C)CN2C(=O)c1cccc(-n2cnc(C3CCCC3)n2)c1 [Compound 80, [3-(3-Cyclopentyl-1H-1,2,4-triazol-1-yl)phenyl][(2S)-2,3-dihydro-2,8-dimethyl-4H-1,4-benzoxazin-4-yl]methanone] | 0% | 0% | 0% | 10% | 30% | 0% | 90% | 40% | 70% | 10% | 50% | 0% | 20% | 70% | 30% | 70% | 10% | 20% | plant injury at 500 g/ha (soybean; [4]): 0%; pest or weed control at 500 g/ha (goosegrass [2]; [4]): 100%; pest or weed control at 125 g/ha (blackgrass; 125 g ai/ha, visual injury after 10 days, 0 to 100 scale, 0 is no effect, 100 is complete control): 20%; pest or weed control at 500 g/ha (blackgrass; 500 g ai/ha, 0 to 100 scale (0 no effect, 100 complete control), 10 days): 40%; pest or weed control at 500 g/ha (ragweed; [4]): 0%
